Results on eight molecules are retold here after PubChem BioAssay (NCI).

Structures are written as SMILES.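 A five-concentration, 48-hour dose response in 96-well plates underlies each endpoint, interpolated linearly between surrounding concentrations. GI50 = concentration required for 50% inhibition of growth. The concentration for full growth arrest is given as TGI.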

Some test systems named below: A498 renal; COLO 205 colon; HCC-2998 colon; LOX IMVI melanoma; NCI-H226 lung; OVCAR-8 ovarian; SF-295 CNS; SK-OV-3 ovarian; SNB-75 CNS; UACC-257 melanoma.
Holding throughout (assay): inhibition of tumour cell growth, NCI panel, 48 h

In the case of `C[C@]12CCC(=O)C(OC(=O)c3ccc([N+](=O)[O-])cc3)=C1CCC2=O`, the TGI in the assay with A498 renal, with COLO 205 colon, in the assay with HCC-2998 colon, in the assay with LOX IMVI melanoma, in the assay on NCI-H226 lung and with OVCAR-8 ovarian was above 100 µM throughout. The TGI with SF-295 CNS, in the assay with SK-OV-3 ovarian, in the assay with SNB-75 CNS and in the assay with UACC-257 melanoma was above 100 µM each time.
As to `CN(CCCCCl)P(=O)(OCCS(=O)(=O)CC(NC(=O)CCC(N)C(=O)O)C(=O)NC(C(=O)O)c1ccccc1)OCC1OC(n2ccc(N)nc2=O)C(O)C1O` (configuration not stated), the GI50 with A498 renal was above 55.1 µM; in the assay on COLO 205 colon, 22 µM; in the assay on HCC-2998 colon, 28 µM; in the assay on LOX IMVI melanoma it was 45.5 µM; with NCI-H226 lung it was above 70.7 µM; with OVCAR-8 ovarian, 5.4 µM. In addition, the GI50 was above 58.8 µM in the assay on SF-295 CNS, 57.1 µM in the assay with SK-OV-3 ovarian, 40.4 µM with SNB-75 CNS and 21.1 µM with UACC-257 melanoma. In addition, the TGI in the assay with A498 renal, with COLO 205 colon, with HCC-2998 colon, in the assay with LOX IMVI melanoma, in the assay on NCI-H226 lung and in the assay on OVCAR-8 ovarian was above 75 µM in each case. For the same molecule, the TGI with SF-295 CNS was above 75 µM; in the assay with SK-OV-3 ovarian, above 75 µM; in the assay with SNB-75 CNS, 74.6 µM; in the assay on UACC-257 melanoma, above 69.8 µM.
With `O=c1oc2ccc(I)cc2c(=O)n1-c1ccc(F)cc1F`, the GI50 is 1.19 µM in the assay on A498 renal; 3.39 µM with COLO 205 colon; 3.23 µM in the assay with HCC-2998 colon; 2.51 µM with LOX IMVI melanoma; 2.41 µM in the assay with NCI-H226 lung; 2.86 µM in the assay on OVCAR-8 ovarian. The GI50 with SF-295 CNS was 1.87 µM; with SK-OV-3 ovarian it was 1.16 µM; in the assay on SNB-75 CNS, 1.26 µM; in the assay with UACC-257 melanoma, 2.01 µM. Further, the TGI is 2.92 µM in the assay on A498 renal; 13.1 µM with COLO 205 colon; 13.9 µM in the assay with HCC-2998 colon; 10.9 µM in the assay on LOX IMVI melanoma; 12.7 µM in the assay with NCI-H226 lung; 13.2 µM in the assay with OVCAR-8 ovarian. For the same molecule, the TGI in the assay with SF-295 CNS was found to be 3.74 µM; with SK-OV-3 ovarian, 4.17 µM; in the assay with SNB-75 CNS, 3.96 µM; in the assay with UACC-257 melanoma, 6.12 µM.
As for `O=C(CCl)NCCNc1nccc(Nc2ccc(S(=O)(=O)Nc3ccccn3)cc2)n1`, the GI50 with A498 renal is 3.67 µM; in the assay with COLO 205 colon, 3.22 µM; in the assay on HCC-2998 colon, 4.8 µM; with LOX IMVI melanoma it was 1.75 µM; in the assay on NCI-H226 lung, 3.34 µM; in the assay with OVCAR-8 ovarian, 3.84 µM. For the same molecule, the GI50 with SF-295 CNS is 2.39 µM; with SK-OV-3 ovarian, 4.67 µM; with SNB-75 CNS it was 2.84 µM; in the assay on UACC-257 melanoma, 2.54 µM. For the same molecule, the TGI is 13.1 µM in the assay with A498 renal; 11.6 µM in the assay on COLO 205 colon; 20.5 µM with HCC-2998 colon; 4.12 µM in the assay on LOX IMVI melanoma; 28.3 µM in the assay on NCI-H226 lung; above 100 µM in the assay on OVCAR-8 ovarian. Further, the TGI amounted to 7.66 µM with SF-295 CNS, 42.8 µM in the assay with SK-OV-3 ovarian, 13.3 µM in the assay with SNB-75 CNS and 14.4 µM in the assay on UACC-257 melanoma.
Consider `O=C(O)[C@H](Cc1c[nH]c2ccccc12)N1C(=O)c2ccccc2C1=O`, for which the GI50 in the assay with A498 renal was 87.3 µM; in the assay with OVCAR-8 ovarian it was above 100 µM. The TGI with A498 renal, with COLO 205 colon, in the assay on HCC-2998 colon, in the assay with LOX IMVI melanoma, with NCI-H226 lung and in the assay with OVCAR-8 ovarian was above 100 µM each time. Also, the TGI in the assay with SF-295 CNS, in the assay on SK-OV-3 ovarian, with SNB-75 CNS and with UACC-257 melanoma was above 100 µM each time.
For the molecule `CC1=CC(C)=NN=C(N)N1S(=O)(=O)c1cc(C)c(Cl)cc1SCc1ccccc1`, the GI50 in the assay on A498 renal is above 100 µM; in the assay on COLO 205 colon, 27.9 µM; in the assay on HCC-2998 colon, 11.9 µM; in the assay on LOX IMVI melanoma, 58.4 µM; with NCI-H226 lung, 58.5 µM; in the assay on OVCAR-8 ovarian, 56.6 µM. The GI50 with SF-295 CNS was 34.3 µM; in the assay with SK-OV-3 ovarian, 77.7 µM; in the assay on SNB-75 CNS, 23.5 µM; in the assay on UACC-257 melanoma it was 37.6 µM. The TGI in the assay with A498 renal, in the assay with COLO 205 colon, in the assay with HCC-2998 colon, with LOX IMVI melanoma, in the assay with NCI-H226 lung and with OVCAR-8 ovarian was above 100 µM in each case. Also, the TGI in the assay on SF-295 CNS, in the assay with SK-OV-3 ovarian, in the assay on SNB-75 CNS and with UACC-257 melanoma was above 100 µM in each case.
On to `COC(=O)c1ccccc1N(C(=O)c1ccccc1)c1ccccc1C`, for which the TGI in the assay with A498 renal was 80.1 µM; in the assay with COLO 205 colon, 54.5 µM; with HCC-2998 colon, above 100 µM; with LOX IMVI melanoma, above 100 µM; with NCI-H226 lung, above 100 µM; with OVCAR-8 ovarian, above 100 µM. Besides, the TGI in the assay with SF-295 CNS is above 100 µM; in the assay with SK-OV-3 ovarian, 69.1 µM; in the assay with SNB-75 CNS it was above 100 µM; in the assay on UACC-257 melanoma it was above 100 µM.
As to `COc1cc(/C=C(\NC(=O)c2ccccc2)c2nc3ccc4c(c3[nH]2)C(=O)c2ccccc2C4=O)cc(OC)c1OC`, the TGI with A498 renal, in the assay with COLO 205 colon, in the assay on HCC-2998 colon, in the assay on LOX IMVI melanoma, with NCI-H226 lung and with OVCAR-8 ovarian was above 100 µM each time. The TGI is above 100 µM in the assay with SF-295 CNS, 95.6 µM in the assay with SK-OV-3 ovarian, 75.3 µM in the assay on SNB-75 CNS and above 100 µM with UACC-257 melanoma.
